Blank lines part the entries; values can stand above or below the molecule they belong to.
What was measured:
adenosine A2B receptor = adenosine A2B receptor (Homo sapiens (Human), UniProt P29275); assay: Adenosine receptor activity assay (Table 1), A2B activity; format: biochemical; details: for Ratio: A2A activity to the A2B activity, A2A/A2B; for IC50: read-out: Ave A2B cAMP IC50
adenosine A2A receptor = adenosine A2A receptor (Homo sapiens (Human), UniProt P29274); assay: Adenosine receptor activity assay (Table 1), A2A activity; format: biochemical; details: read-out: Ave A2A cAMP IC50
Chain of adenosine A2A receptor (P29274 whole entry): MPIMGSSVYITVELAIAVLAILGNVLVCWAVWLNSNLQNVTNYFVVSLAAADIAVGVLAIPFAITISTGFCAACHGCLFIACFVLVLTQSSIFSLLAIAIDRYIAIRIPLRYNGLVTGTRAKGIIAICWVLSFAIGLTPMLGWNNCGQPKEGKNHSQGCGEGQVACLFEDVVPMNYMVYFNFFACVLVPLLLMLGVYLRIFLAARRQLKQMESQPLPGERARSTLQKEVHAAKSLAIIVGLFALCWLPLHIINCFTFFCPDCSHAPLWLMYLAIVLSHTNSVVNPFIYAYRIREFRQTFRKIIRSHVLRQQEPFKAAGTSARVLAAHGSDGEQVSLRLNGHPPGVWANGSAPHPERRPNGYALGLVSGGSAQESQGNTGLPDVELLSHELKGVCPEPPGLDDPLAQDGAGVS

Chain of adenosine A2B receptor (P29275 whole entry): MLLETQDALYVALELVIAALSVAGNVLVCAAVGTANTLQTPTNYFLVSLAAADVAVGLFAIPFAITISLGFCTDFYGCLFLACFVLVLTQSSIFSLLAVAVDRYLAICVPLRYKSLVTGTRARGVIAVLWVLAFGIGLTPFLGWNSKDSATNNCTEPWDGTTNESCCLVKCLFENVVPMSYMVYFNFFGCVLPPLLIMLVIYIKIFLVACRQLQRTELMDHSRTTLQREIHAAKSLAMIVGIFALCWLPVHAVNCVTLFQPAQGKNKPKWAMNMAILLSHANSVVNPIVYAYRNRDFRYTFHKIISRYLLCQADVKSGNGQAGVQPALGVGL

Structure (SMILES): Cc1cc2nc(N[C@@H](C)c3cccnc3)nc(C(=O)N3CC(CN(C)C)C3)c2s1 [Example Z516, (S)-(3-((Dimethylamino)methyl)azetidin-1-yl)(6-methyl-2-((1-(pyridin-3-yl)ethyl)amino)thieno[3,2-d]pyrimidin-4-yl)methanone]
Ratio (adenosine A2B receptor): 8.08 | IC50 (adenosine A2B receptor): > 500 nM | IC50 (adenosine A2A receptor): > 500 nM

Structure (SMILES): Cc1cc2nc(N[C@@H](C)c3cncc(F)c3)nc(C(=O)NCCC3CN(C(=O)C(F)(F)F)C3)c2s1 [Example Z521, (S)-2-((1-(5-Fluoropyridin-3-yl)ethyl)amino)-6-methyl-N-(2-(1-(2,2,2-trifluoroacetyl)azetidin-3-yl)ethyl)thieno[3,2-d]pyrimidine-4-carboxamide]
Ratio (adenosine A2B receptor): 0.06 | IC50 (adenosine A2B receptor): > 500 nM | IC50 (adenosine A2A receptor): > 500 nM

Structure (SMILES): CC(=O)NC1CN(C(=O)c2nc(N[C@@H](C)c3ccccn3)nc3ccsc23)C1 [Example Z533, (S)—N-(1-(2-((1-(pyridin-2-yl)ethyl)amino)thieno[3,2-d]pyrimidine-4-carbonyl)azetidin-3-yl)acetamide]
IC50 (adenosine A2B receptor): 100 to 500 nM | IC50 (adenosine A2A receptor): 100 to 500 nM

Structure (SMILES): Cc1cc2nc(N[C@@H](C)c3cncc(F)c3)nc(C(=O)NCC3CCNCC3)c2s1 [Example Z534, (S)-2-((1-(5-Fluoropyridin-3-yl)ethyl)amino)-6-methyl-N-(piperidin-4-ylmethyl)thieno[3,2-d]pyrimidine-4-carboxamide]
Ratio (adenosine A2B receptor): 57.93 | IC50 (adenosine A2B receptor): 50 to 100 nM | IC50 (adenosine A2A receptor): > 500 nM

Structure (SMILES): C[C@H](Nc1nc(C(=O)NCCN)c2sccc2n1)c1cncc(F)c1 [Example Z536, (S)—N-(2-Aminoethyl)-2-((1-(5-fluoropyridin-3-yl)ethyl)amino)thieno[3,2-d]pyrimidine-4-carboxamide]
Ratio (adenosine A2B receptor): 10.26 | IC50 (adenosine A2B receptor): > 500 nM | IC50 (adenosine A2A receptor): > 500 nM

Structure (SMILES): C[C@H](Nc1nc(C(=O)NCCNC(=O)C(C)(C)C)c2sccc2n1)c1cncc(F)c1 [Example Z537, (S)-2-((1-(5-Fluoropyridin-3-yl)ethyl)amino)-N-(2-pivalamidoethyl)thieno[3,2-d]pyrimidine-4-carboxamide]
Ratio (adenosine A2B receptor): 0.87 | IC50 (adenosine A2B receptor): 100 to 500 nM | IC50 (adenosine A2A receptor): 100 to 500 nM

Structure (SMILES): C[C@H](Nc1nc(C(=O)NC2CN(C(=O)C(C)(C)C)C2)c2sccc2n1)c1cncc(F)c1 [Example Z545, (S)-2-((1-(5-Fluoropyridin-3-yl)ethyl)amino)-N-(1-pivaloylazetidin-3-yl)thieno[3,2-d]pyrimidine-4-carboxamide]
IC50 (adenosine A2B receptor): 100 to 500 nM | IC50 (adenosine A2A receptor): 100 to 500 nM

The remaining lines, values ahead:

Ratio (adenosine A2B receptor): 3.05 | IC50 (adenosine A2B receptor): 50 to 100 nM | IC50 (adenosine A2A receptor): 100 to 500 nM
Structure (SMILES): C[C@H](Nc1nc(C(=O)N2CC(CN(C)C(=O)OC(C)(C)C)C2)c2sccc2n1)c1cncc(F)c1 [Example Z525, tert-Butyl (S)-((1-(2-((1-(5-Fluoropyridin-3-yl)ethyl)amino)thieno[3,2-d]pyrimidine-4-carbonyl)azetidin-3-yl)methyl)(methyl)carbamate]

Ratio (adenosine A2B receptor): 7.31 | IC50 (adenosine A2B receptor): 50 to 100 nM | IC50 (adenosine A2A receptor): > 500 nM
Structure (SMILES): Cc1cc2nc(N[C@@H](C)c3ccccn3)nc(C(=O)N3CC(CNC(=O)C(C)(C)C)C3)c2s1 [Example Z527, (S)—N-((1-(6-Methyl-2-((1-(pyridin-2-yl)ethyl)amino)thieno[3,2-d]pyrimidine-4-carbonyl)azetidin-3-yl)methyl)pivalamide]

Ratio (adenosine A2B receptor): 12.33 | IC50 (adenosine A2B receptor): 10 to 50 nM | IC50 (adenosine A2A receptor): > 500 nM
Structure (SMILES): C[C@H](Nc1nc(C(=O)NCCNS(C)(=O)=O)c2sccc2n1)c1cncc(F)c1 [Example Z538, (S)-2-((1-(5-Fluoropyridin-3-yl)ethyl)amino)-N-(2-(methylsulfonamido)ethyl)thieno[3,2-d]pyrimidine-4-carboxamide]

IC50 (adenosine A2B receptor): 10 to 50 nM | IC50 (adenosine A2A receptor): 100 to 500 nM
Structure (SMILES): CC(=O)N1CC(CCNC(=O)c2nc(N[C@@H](C)c3cncc(F)c3)nc3ccsc23)C1 [Example Z539, (S)—N-(2-(1-Acetylazetidin-3-yl)ethyl)-2-((1-(5-fluoropyridin-3-yl)ethyl)amino)thieno[3,2-d]pyrimidine-4-carboxamide]

Source: patent US11254686B1 (Corvus Pharmaceuticals, Inc., priority 2017, dated 2022)
